System: T4-2 cells
Assay: Reversion assay in 3D rBM cultures with Northern blot of AZU-1 message
Type: cell-based, human
Details: 3D rBM culture; AIIB2 100 μg/ml ascites protein, Tyrphostin AG 1478 100 nM
Text: To test this, total RNA was extracted from 3D rBM cultures of S1 cells and T4-2 cells treated with or without inhibitors of either β1 integrin (mAb AIIB2) or EGFR (Tyrphostin). Results are seen in FIG. 18. […] By virtue of its connections with β1 integrin and EGFR, AZU-1 may provide essential cellular information that dictates cellular structure and phenotype.
Total RNA was extracted from cells cultured as monolayers or in 3D rBM or cells from normal tissues or in situ carcinoma with TRIzol reagent (Life Technologies, Inc. Grand Island, N.Y.). For Northern blots, total RNA (20 μg/lane) was resolved on denaturing agarose gels and transferred to Hybond-N^+ membranes (Amersham). Resulting blots were hybridized with ^32P-labeled cDNA probes and analyzed by autoradiography. A GAPDH probe was used to normalize variations in loading.
The β1-integrin function-blocking mAb AIIB2 (C. Damsky, UCSF) was introduced into the cell-embedded substratum at a concentration of 100 μg/ml ascites protein (which corresponds to 4-10 μg/ml purified rat IgG1) at the time of Matrigel gelation. Tyrphostin AG 1478 (Calbiochem) dissolved in dimethyl sulfoxide was added to the medium at a concentration of 100 nM on alternate days. Control cultures were treated with […] and vehicle only for AIIB2 antibody and inhibitor experiments, respectively.

## COc1cc2ncnc(Nc3cccc(Cl)c3)c2cc1OC [Tyrphostin, Tyrphostin AG 1478]
  AZU-1 message levels in treated T4-2 cells (Northern blot): restored to S1-like levels
  phenotype of treated T4-2 cells in 3D rBM: phenotypically reverted

— US6753154B1, “Human AZU-1 gene, variants thereof and expressed gene products” (The Regents of the University of California, priority 1998, dated 2004)
